According to PubChem BioAssay AID179 (DTP/NCI, 2004):
Active and inactive are the calls of the source.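 Rule for the calls: active = compounds giving half or more protection of infected cells from virus-caused growth loss, again on retest; inactive = the rest.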 Where a SMILES comes first, the peptide text is derived from it. [ ]: non-standard residue; d: D form. The star is where a group is joined. ξ: configuration not given here. Dnp = O=[N+]([O-])c1ccc(*)c([N+](=O)[O-])c1; Bz = O=C(c1ccccc1)*; ξC = NC(CS)C(=O)O

Test system: CEM cells HIV-1 protection, formazan growth assay
Assay: NCI AIDS Antiviral Assay
Conditions: for IC50: measured here: growth of uninfected CEM cells
In short: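 Category rules: moderately active means at least 50% protection on retest, and confirmed active means 100% protection reproducibly. The underlying data came from a formazan growth assay in HIV-1-infected CEM cells.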

| SMILES | EC50 [µM] | IC50 [µM] | outcome |
| --- | --- | --- | --- |
| COC(=O)C(CSc1ccc([N+](=O)[O-])cc1[N+](=O)[O-])NC(=O)CNC(=O)c1ccccc1 (stereo unspecified) (Bz-Gly-[ξC](Dnp)-OMe) | > 15.5 | > 15.5 |  |
| COc1cc2c(cc1OC)C1CC3(CC4c5cc(OC)c(OC)cc5CCN4CC3CO)C(CO)CN1CC2 (stereo unspecified) |  |  | inactive |
| COc1cc2c(cc1O)[C@H](Cc1ccc(Oc3cc(C[C@H]4c5cc(OC)c(OC)cc5CCN4C)ccc3OC)cc1)NCC2 |  |  | inactive |
| CN(C)CC1CN=C(NC(=O)Nc2ccccc2)O1 (stereo unspecified) | > 200 | > 200 |  |
| CCOP(=O)(OCC)C(c1ccccc1)N(C(=O)NC(F)(F)F)c1ccc(C)cc1 (stereo unspecified) | > 200 | > 200 |  |
| CC1(CF)SCc2nc3ccccc3n21 (stereo unspecified) | > 200 | > 200 |  |
| CCC1(CCCC=C(c2cc(Cl)c(OC)c(C(=O)OC)c2)c2cc(Cl)c(OC)c(C(=O)OC)c2)OCCO1 | > 200 | 148 |  |
| CCOC(=O)CCC(NC(=O)OCc1ccccc1)C(=O)NNC(=O)OC(C)(C)C (stereo unspecified) | > 200 | > 200 |  |
| Cc1cc(C(O)CCCc2ccccc2)cc(C)c1O (stereo unspecified) | > 251 | 83.2 |  |
| COC(=O)COc1ccc([As](=O)(O)O)cc1 | > 200 | > 200 |  |
| Cc1cc(=O)[nH]c(Sc2ccc([N+](=O)[O-])cc2[N+](=O)[O-])n1 | > 200 | 6.31 |  |
| CC12CCCCC1=[N+]([O-])C(C)(C)N2O (stereo unspecified) | > 200 | > 200 |  |
| O=C(/C=C/c1ccccc1)CCC1C(=O)NC(=S)NC1=O | > 85.1 | > 85.1 |  |
| C[C@@H]1C=C[C@@H]2COC(=O)C2=C[C@@H]1c1ccccc1 |  |  | inactive |
| CS[C@]12[C@@H]3C(=O)N(C)C(=O)[C@@H]3[C@](C)(C(=O)N1C)C(=O)N2c1ccccc1 | > 200 | > 200 |  |
| Cc1ccc(S(=O)(=O)OC2CSS(=O)CC2OS(=O)(=O)c2ccc(C)cc2)cc1 (stereo unspecified) | > 200 | 9.33 |  |
| Cc1[nH]c2ccccc2c1C1Cc2ccccc2N1C(=O)/C(Cl)=C/c1ccccc1 (stereo unspecified) | > 6.61 | > 6.61 |  |
| CC[n+]1c(/C=C/c2ccc(N(CCCl)CCCl)cc2)ccc2cc(I)ccc21 |  |  | inactive |
| O=C1C(=Cc2ccco2)C(=O)C2CCCCC12 (stereo unspecified) | > 200 | 166 |  |
| CC(C)(C)OC(=O)CC(NC(=O)OC(C)(C)C)C(=O)Oc1ccc([N+](=O)[O-])cc1 (stereo unspecified) | > 200 | > 200 |  |
| Nc1[nH]c(=S)nc2nc3c4ccccc4c4ccccc4c3nc12 | > 200 | > 200 |  |
| O=C1OCC2=C1C(c1ccc(Cl)cc1)c1cc3c(cc1O2)OCO3 (stereo unspecified) | > 200 | 3.98 |  |

| SMILES | EC50 [µM] | IC50 [µM] | outcome |
| --- | --- | --- | --- |
| CCN(CCCl)c1cc(C(=O)Nc2cc(NC(=O)c3cc(N(CC)CCCl)c([N+](=O)[O-])cc3[N+](=O)[O-])cc(C(=O)NCCN(C)C)c2)c([N+](=O)[O-])cc1[N+](=O)[O-] | > 200 | 126 |  |
| CCN(CC)CCN1C(=O)c2cccc3cccc(c23)C1=O | > 200 | 9.77 |  |
| Cc1cc2c3ccccc3n(C)c2c2c1C(=O)C=CC2=O | > 69.2 | 5.89 |  |
| Cc1nc(Nc2ccc(Cl)cc2)sc1C(=O)NNC(=S)NN | > 83.2 | 33.1 |  |
| COc1ccc(NC(=S)NNC(=O)c2nsc3ccccc23)cc1 | > 138 | 19.1 |  |
| CN(C)CCOc1ccc(-c2c(Oc3ccc(Cl)cc3)c(=O)oc3ccccc23)cc1 | > 200 | 8.13 |  |
| CCCCCCCCCc1cc(=O)c2c(O)cc(O)cc2o1 |  |  | inactive |
| O=C(NCCCN1CC2CCCC2C1)C(C1CCCCC1)C1CCCCC1 (stereo unspecified) | > 200 | 11.5 |  |
| CCOP(=O)(OCC)/C(C#N)=C/c1ncc[nH]1 | > 200 | > 200 |  |
| FC(F)(F)c1ccc2c(c1)N(CCCNCCN1CCOCC1)c1ccccc1S2 | > 355 | 20.9 |  |
| O=c1c2cn[nH]c2nc2scc(-c3ccc(Cl)cc3)n12 | > 200 | > 200 |  |
| Cc1c2ccccc2nc(CS(=O)c2ccccc2)[n+]1[O-] (stereo unspecified) | > 200 | 186 |  |
| Clc1c2ccccc2[se][n+]1-c1ccccc1 | > 21.9 | 11.2 |  |
| CN(CCS(=O)(=O)N1C(=O)C2CCCN2C(=O)[C@@H]1Cc1ccccc1)C(=O)OCc1ccccc1 (stereo partly specified) | > 50.1 | > 50.1 |  |
| CCP(=O)(CC)C(Cl)(Cl)C(=O)NC | > 200 | > 200 |  |
| C/C=C1\CC2C(=O)CCC2C2c3ccccc3OC12 (stereo unspecified) | > 200 | > 200 |  |
| N=C(N)c1ccc2oc3ccc(C(=N)N)cc3c(=O)c2c1 |  |  | inactive |
| O=C(Cn1c2ccc(Br)cc2c2nc3ccccc3nc21)NNC(=S)NC1CCCCC1 | > 200 | 36.3 |  |
| COC(=O)C1OC2(CCCC3CC32)O[C@H]1C(=O)OC (stereo partly specified) |  |  | inactive |
| CC1(C)N=C(/C(C#N)=[N+](/[O-])C(=O)c2ccccc2)C(C)(C)N1O | > 200 | > 200 |  |
| CCOC(=O)c1[nH]c2c(cc(C=O)c3ccccc32)c1C | > 200 | 60.3 |  |
| CC(C)(C)OC(=O)NCCCCC(NC(=O)c1ccccc1)C(N)=O (stereo unspecified) | > 200 | > 200 |  |
